Results published in patent US11179383B2 (Gilead Sciences, Inc., priority 2018, dated 2021).
pEC50: −log10 of the molar value.

Target: T1, α4β7 integrin (Homo sapiens, UniProt P13612+P26010)
T1 construct: monitoring the capture of α4β7 integrin expressing cells on a recombinant MadCAM-1 extracellular domain-coated plate; endogenous in cells; host or cells: RPMI8866 cells
T1 sequence (P13612 34-1032): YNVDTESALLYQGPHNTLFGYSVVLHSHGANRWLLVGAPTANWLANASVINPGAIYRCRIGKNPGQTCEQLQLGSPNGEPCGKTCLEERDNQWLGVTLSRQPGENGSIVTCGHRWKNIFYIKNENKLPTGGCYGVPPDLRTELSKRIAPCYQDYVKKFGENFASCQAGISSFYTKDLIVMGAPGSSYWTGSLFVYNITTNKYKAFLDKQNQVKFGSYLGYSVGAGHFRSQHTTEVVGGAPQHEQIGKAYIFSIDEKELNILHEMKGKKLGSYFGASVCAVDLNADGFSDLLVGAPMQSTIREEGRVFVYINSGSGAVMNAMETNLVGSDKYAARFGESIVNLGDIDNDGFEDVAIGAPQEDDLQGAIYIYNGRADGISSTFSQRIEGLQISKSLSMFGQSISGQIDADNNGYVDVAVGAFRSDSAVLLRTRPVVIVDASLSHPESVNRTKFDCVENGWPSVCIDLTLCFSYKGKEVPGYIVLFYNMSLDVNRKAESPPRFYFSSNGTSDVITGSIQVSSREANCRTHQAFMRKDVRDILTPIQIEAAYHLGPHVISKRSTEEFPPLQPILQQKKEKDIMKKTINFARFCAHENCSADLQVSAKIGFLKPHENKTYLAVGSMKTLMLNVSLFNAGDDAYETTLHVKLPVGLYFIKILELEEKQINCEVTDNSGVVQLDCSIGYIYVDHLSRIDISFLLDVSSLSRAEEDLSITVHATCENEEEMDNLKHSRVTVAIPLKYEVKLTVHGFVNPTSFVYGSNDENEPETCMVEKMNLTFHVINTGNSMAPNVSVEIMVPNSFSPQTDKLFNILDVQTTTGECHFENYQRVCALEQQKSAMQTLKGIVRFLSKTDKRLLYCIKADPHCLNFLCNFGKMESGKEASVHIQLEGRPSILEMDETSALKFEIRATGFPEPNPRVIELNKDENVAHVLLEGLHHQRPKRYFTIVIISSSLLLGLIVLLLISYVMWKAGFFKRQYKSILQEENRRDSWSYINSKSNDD
T1 sequence (P26010 20-798): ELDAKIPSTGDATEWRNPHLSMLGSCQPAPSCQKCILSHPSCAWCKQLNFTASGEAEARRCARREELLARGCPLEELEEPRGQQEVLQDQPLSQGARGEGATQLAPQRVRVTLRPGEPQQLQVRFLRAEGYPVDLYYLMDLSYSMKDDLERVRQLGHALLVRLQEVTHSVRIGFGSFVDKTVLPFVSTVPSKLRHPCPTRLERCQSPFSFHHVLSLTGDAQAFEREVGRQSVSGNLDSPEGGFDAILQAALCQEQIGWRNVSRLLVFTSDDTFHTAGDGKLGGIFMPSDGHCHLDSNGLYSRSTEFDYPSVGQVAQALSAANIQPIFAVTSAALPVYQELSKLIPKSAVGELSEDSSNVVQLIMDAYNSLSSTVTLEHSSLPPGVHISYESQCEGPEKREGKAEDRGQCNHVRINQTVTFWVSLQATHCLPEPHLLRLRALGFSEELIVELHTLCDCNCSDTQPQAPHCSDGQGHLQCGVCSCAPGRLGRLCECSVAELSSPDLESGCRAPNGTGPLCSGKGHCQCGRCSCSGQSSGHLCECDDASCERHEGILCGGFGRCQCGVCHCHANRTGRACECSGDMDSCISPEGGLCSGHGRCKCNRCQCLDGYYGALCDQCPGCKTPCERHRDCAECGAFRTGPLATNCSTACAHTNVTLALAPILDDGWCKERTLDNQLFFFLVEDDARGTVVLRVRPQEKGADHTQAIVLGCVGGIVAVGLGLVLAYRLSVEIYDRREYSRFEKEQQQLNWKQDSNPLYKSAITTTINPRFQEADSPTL
Experiment: α4β7 Integrin Cell Capture Assay
Format: cell-based
Conditions: capture of α4β7 integrin expressing RPMI8866 cells on recombinant MadCAM-1 extracellular domain-coated plate; DMEM+0.5% FBS+0.5 mM MnCl2; read-out: EC50 α4β7
Description: α4β7 Integrin Cell Capture Assay
The potency of inhibitors in preventing α4β7 integrin interaction with MadCAM-1 was measured by monitoring the capture of α4β7 integrin expressing cells on a recombinant MadCAM-1 extracellular domain-coated plate.
384-Well plates (Corning 3702) were coated with MadCAM-1 extracellular domain by dispensing 20 μL of MAdCAM-1 at 1.0 μg/mL per well and incubating overnight at 4° C. The plates were then washed with PBS and blocked with 3% BSA for 2 hours before being washed again.
RPMI8866 cells were spun down and re-suspended in assay medium (DMEM+0.5% FBS+0.5 mM MnCl2) at a density of 0.5×10^6 cells/mL. The cells were then dispensed (60 μL/well) to a 384-well plate (Greiner 781280) that was previously spotted with 60 nL of test compound per well. The plates were incubated at 37° C. for 1 hour. 50 μL of cells were transferred to the blocked, MadCAM-1-coated plates and incubated for 30 minutes at 37° C. 10 μL of 12% glutaraldehyde containing Hoechst 33342 (0.06 mg/mL) was added to the cells (2% glutaraldehyde and 0.01 mg/mL final concentrations). The plates were incubated for 90 minutes at room temperature. The plates were then washed 3 times with 70 μL of PBS per well and imaged on a Cellomics ArrayScan instrument. The cells that were bound to the plate were counted and plotted against the compound concentration to determine the EC50 of the test compounds.

| Compound | pEC50 |
| --- | --- |
| [2H]C([2H])([2H])Oc1cc(F)c(F)cc1-c1ccc(C[C@H](NC(=O)c2c(Cl)cccc2Cl)C(=O)O)c2ncccc12 [Example 55, (S)-2-(2,6-dichlorobenzamido)-3-(5-(4,5-difluoro-2-(methoxy-d3)phenyl)quinolin-8-yl)propanoic acid] | 7.20 |
| COc1cc(F)cc(Cl)c1-c1ccc(C[C@H](NC(=O)c2c(Cl)cccc2Cl)C(=O)O)c2ncccc12 (single isomer, unassigned) [Example 53] | 6.83 |
| Cc1c(-c2ccc(C[C@H](NC(=O)c3c(F)cccc3F)C(=O)O)c3ncccc23)c(=O)n(C)c(=O)n1C (single isomer, unassigned) [Example 82] | 7.41 |
| Cc1c(-c2ccc(C[C@H](NC(=O)c3c(Cl)cccc3Cl)C(=O)O)c3ncccc23)c(=O)n(C)c2ccc(Br)cc12 [Example 70, (S)-3-(6-bromo-1,4-dimethyl-2-oxo-1,2-dihydro-[3,5′-biquinolin]-8′-yl)-2-(2,6-dichlorobenzamido)propanoic acid] | 7.26 |
| O=C(N[C@@H](Cc1ccc(-c2nccnc2C(F)(F)F)c2cccnc12)C(=O)O)c1c(Cl)cccc1Cl [Example 15, (S)-2-(2,6-dichlorobenzamido)-3-(5-(3-(trifluoromethyl)pyrazin-2-yl)quinolin-8-yl)propanoic acid] | 7.07 |
| O=C(N[C@@H](Cc1ccc(-c2c(Cl)cc(F)cc2Cl)c2nsnc12)C(=O)O)c1c(F)cccc1F [Example 150, (S)-3-(7-(2,6-dichloro-4-fluorophenyl)benzo[c][1,2,5]thiadiazol-4-yl)-2-(2,6-difluorobenzamido)propanoic acid] | 6.74 |
| CCOCc1cc(OC)c(-c2ccc(C[C@@H](NC(=O)c3c(F)cc(NS(=O)(=O)c4ccc(-c5ccnc(F)c5)cc4)cc3F)C(=O)O)c3c2cnn3C)c(OC)c1 (single isomer, unassigned) [Example 145] | 7.46 |
| O=C(N[C@@H](Cc1ccc(-c2c(Cl)cc(F)cc2Cl)c2c1C=CCO2)C(=O)O)c1c(Cl)cccc1Cl [Example 169, (S)-3-(8-(2,6-dichloro-4-fluorophenyl)-2H-chromen-5-yl)-2-(2,6-dichlorobenzamido)propanoic acid] | 6.85 |
| COc1cc(F)c(F)cc1-c1ccc(C[C@H](NC(=O)c2c(Cl)cccc2Cl)C(=O)O)c2nccc(C)c12 [Example 97, (S)-2-(2,6-dichlorobenzamido)-3-(5-(4,5-difluoro-2-methoxyphenyl)-4-methylquinolin-8-yl)propanoic acid] | 7.01 |
| O=C(N[C@@H](Cc1ccc(-c2cccc3c2OCCC3)c2ccccc12)C(=O)O)c1c(Cl)cccc1Cl [Example 111, (S)-3-(4-(chroman-8-yl)naphthalen-1-yl)-2-(2,6-dichlorobenzamido) propanoic acid] | 7.12 |
| Cn1cc(-c2ccc(C[C@H](NC(=O)c3c(Cl)cccc3Cl)C(=O)O)c3ncccc23)c(C(F)(F)F)n1 [Example 17, (S)-2-(2,6-dichlorobenzamido)-3-(5-(1-methyl-3-(trifluoromethyl)-1H-pyrazol-4-yl)quinolin-8-yl)propanoic acid] | 6.45 |

Molecules with a higher pEC50, results first:

| pEC50 | Compound |
| --- | --- |
| 7.91 | O=C(N[C@@H](Cc1ccc(-c2ncc3ccccc3c2Br)c2ccccc12)C(=O)O)c1c(Cl)cccc1Cl [Example 113, (S)-3-(4-(4-bromoisoquinolin-3-yl)naphthalen-1-yl)-2-(2,6-dichlorobenzamido) propanoic acid] |
| 9.30 | CC[C@@H](Nc1cc(F)c(C(=O)N[C@@H](Cc2ccc(-c3c(C)cc(C)n(C)c3=O)c3ccccc23)C(=O)O)c(F)c1)C(F)(F)F (single isomer, unassigned) [Example 133] |
| 8.57 | Cc1cc(C(F)(F)F)c(-c2ccc(C[C@H](NC(=O)c3c(Cl)cccc3Cl)C(=O)O)c3ncccc23)c(=O)n1C (single isomer, unassigned) [Example 60] |
| 7.57 | Cn1c(=O)c(-c2ccc(C[C@H](NC(=O)c3c(Cl)cccc3Cl)C(=O)O)c3ncccc23)c(C(F)(F)F)c2cc(Br)ccc21 (single isomer, unassigned) [Example 65] |
| 8.21 | Cc1c(-c2ccc(C[C@H](NC(=O)c3c(Cl)cccc3Cl)C(=O)O)c3ncccc23)c(=O)n(C)c2ccc(C(F)(F)F)cc12 [Example 66, (S)-2-(2,6-dichlorobenzamido)-3-(1,4-dimethyl-2-oxo-6-(trifluoromethyl)-1,2-dihydro-[3,5′-biquinolin]-8′-yl)propanoic acid] |
| 7.72 | Cn1c(=O)c(-c2ccc(C[C@H](NC(=O)c3c(Cl)cccc3Cl)C(=O)O)c3ncccc23)c(C(F)(F)F)c2cc(Br)ccc21 [Example 58, (S)-3-(6-bromo-1-methyl-2-oxo-4-(trifluoromethyl)-1,2-dihydro-[3,5′-biquinolin]-8′-yl)-2-(2,6-dichlorobenzamido)propanoic acid] |
| 8.49 | Cn1c(=O)c(-c2ccc(C[C@H](NC(=O)c3c(Cl)cccc3Cl)C(=O)O)c3ncccc23)c(C(F)(F)F)c2ccccc21 (single isomer, unassigned) [Example 62] |
| 8.68 | Cc1c(-c2ccc(C[C@H](NC(=O)c3c(Cl)cccc3Cl)C(=O)O)c3ccccc23)c(=O)n(C)c(=O)n1C (single isomer, unassigned) [Example 109] |
| 9.05 | CC[C@@H](Nc1cc(F)c(C(=O)N[C@@H](Cc2ccc(-c3c(OC)cnn(C)c3=O)c3ccccc23)C(=O)O)c(F)c1)C(F)(F)F (single isomer, unassigned) [Example 137] |
| 10.05 | Cc1cc(N2CCOC[C@@H]2C(F)(F)F)cc(F)c1C(=O)N[C@@H](Cc1ccc(-n2c(=O)c3ccncc3n(C)c2=O)n2nccc12)C(=O)O [Example 180] |
| 10.00 | Cn1c(=O)c(-c2ccc(C[C@H](NC(=O)c3c(F)cc(N4CCOC[C@@H]4C(F)(F)F)cc3F)C(=O)O)c3ccccc23)cc2cnccc21 [Example 140, (S)-2-(2,6-difluoro-4-((R)-3-(trifluoromethyl)morpholino)benzamido)-3-(4-(1-methyl-2-oxo-1,2-dihydro-1,6-naphthyridin-3-yl)naphthalen-1-yl)propanoic acid] |
| 9.40 | Cc1cc(C)n(C)c(=O)c1-c1ccc(C[C@H](NC(=O)c2c(F)cc(N3CCOC[C@@H]3C(F)(F)F)cc2F)C(=O)O)c2ccccc12 (single isomer, unassigned) [Example 127] |
